Laboratory results: patent US10330672B2, “Method for screening activator of mitochondrial activity” (INTELLIGENT SYNTHETIC BIOLOGY CENTER, priority 2015, dated 2019)

Key:
INS-1 cells [1] = assay: Mitochondrial membrane potential by TMRM staining and FACS in INS-1 cells; assay type: cell-based; conditions: 10 μM, 2 hours, TMRM staining, vs DMSO control
Procedure: (§1) Initially, the INS-1 cells, which are insulin-secreting cells, were cultured in a cell incubator (37° C., 5% CO2, RPMI medium, 10% FBS), were treated with 10 μM of gypenoside 75, ginsenoside F1, ginsenoside Rg3, ginsenoside Rb2, or ginsenoside Rb3 for 2 hours, and the intracellular ATP amount and mitochondrial membrane potential were measured. For the control group, cells treated with DMSO were used.
In the final stage, the mitochondrial membrane potential was measured by tetramethylrhodamine methyl ester (TMRM) staining. As the level of the TMRM staining increases proportionately to the mitochondrial membrane potential, the intracellular mitochondrial membrane potential can be measured by measuring the level of the TMRM staining.
Specifically, the INS-1 cells treated with each of the above materials were stained with TMRM, and applied to fluorescence-activated cell sorting (FACS). Then, the level of the staining was quantified, analyzed, and compared (FIG. 2).

INS-1 cells [2] = assay: Intracellular ATP amount by luciferase assay in INS-1 cells; assay type: cell-based; conditions: 10 μM, 2 hours, vs DMSO control
Procedure: as §1
Next, the amount of ATP was measured using luciferase. As the fluorescence by activation of luciferase depends on the amount of ATP, the intracellular ATP amount can be measured by measuring the level of the fluorescence emission.
Specifically, the INS-1 cells treated with each of the above materials were lysed through freezing-thawing and ultrasonication treatments to obtain a cell lysate. Luciferase and luciferin were added to the obtained cell lysate above to induce fluorescence, and the levels of the fluorescence were quantified and compared (FIG. 1).

CC(C)=CCC[C@](C)(O[C@@H]1O[C@H](CO[C@@H]2O[C@H](CO)[C@@H](O)[C@H](O)[C@H]2O)[C@@H](O)[C@H](O)[C@H]1O)[C@H]1CC[C@]2(C)[C@@H]1[C@H](O)C[C@@H]1[C@@]3(C)CC[C@H](O)C(C)(C)[C@@H]3CC[C@]12C [gypenoside 75]
increase of intracellular mitochondrial membrane potential compared with the control group (INS-1 cells [1]): 40%
increase of intracellular ATP amount compared with the control group (INS-1 cells [2]): 50%
